Data published in patent US20150105252A1, “SUBSTITUTED PYRAZOLES AS HERBICIDES” (E I DU PONT DE NEMOURS AND COMPANY, priority 2013, published 2015).

Experiments:
velvetleaf = assay: Test C postemergence; assay type: in vivo, Abutilon theophrasti
Outline: (§1)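 In this greenhouse assay, seeded soil (loam plus sand) or emerged seedlings in peat-vermiculite medium were treated with formulated compound. Roughly two weeks later (13–15 days), each species was scored visually relative to controls, from 0 for no effect to 100 for complete control.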

ryegrass, Italian = assay: Test C postemergence; assay type: in vivo, Lolium multiflorum
Outline: as §1

morningglory = assay: Test C postemergence; assay type: in vivo, Ipomoea coccinea
Outline: as §1

soybean = assay: Test C postemergence; assay type: in vivo, Glycine max
Outline: as §1

foxtail, giant = assay: Test C postemergence; assay type: in vivo, Setaria faberii
Outline: as §1

chickweed = assay: Test C postemergence; assay type: in vivo, Stellaria media
Outline: as §1

ragweed = assay: Test C postemergence; assay type: in vivo, Ambrosia elation
Outline: as §1

galium = assay: Test C postemergence; assay type: in vivo, Galium aparine
Outline: as §1

nutsedge, yellow = assay: Test C postemergence; assay type: in vivo, Cyperus esculentus
Outline: as §1

barnyardgrass = assay: Test C postemergence; assay type: in vivo, Echinochloa crus-galli
Outline: as §1

waterhemp = assay: Test C postemergence; assay type: in vivo, Amaranthus rudis
Outline: as §1

kochia = assay: Test C postemergence; assay type: in vivo, Kochia scoparia
Outline: as §1

pigweed = assay: Test C postemergence; assay type: in vivo, Amaranthus retroflexus
Outline: as §1

lambsquarters [1] = assay: Test C postemergence; assay type: in vivo, Chenopodium album
Outline: as §1

oat, wild = assay: Test C postemergence; assay type: in vivo, Avena fatua
Outline: as §1

lambsquarters [2] = assay: Test C preemergence; assay type: in vivo, Chenopodium album
Outline: as §1

[3] = Postemergence, 31 g ai/ha, visually evaluated after 13 to 15 days
[4] = postemergence, 62 g ai/ha, scale 0 to 100
[5] = postemergence, 250 g ai/ha, scale 0 to 100 (0 no effect, 100 complete control)
[6] = postemergence, 125 g ai/ha, scale 0 to 100, 0 no effect, 100 complete control

CCOc1cc(C(=O)NCC(F)(F)F)nn1Cc1ccnc(C(F)(F)F)c1 [Compound 104]
Plant response rating (scale of 0 to 100 where 0 is no effect and 100 is complete control), Velvetleaf (velvetleaf; [3]): 25 | Velvetleaf plant response rating (velvetleaf; [4]): 40 | Plant response rating, Velvetleaf (velvetleaf; [5]): 80 | Plant response rating, Velvetleaf (velvetleaf; [6]): 65 | Plant response rating (scale of 0 to 100 where 0 is no effect and 100 is complete control), Ryegrass, Italian (ryegrass, Italian; [3]): 5 | Ryegrass, Italian plant response rating (ryegrass, Italian; [4]): 5 | Plant response rating, Ryegrass, Italian (ryegrass, Italian; [5]): 80 | Plant response rating, Ryegrass, Italian (ryegrass, Italian; [6]): 35 | Plant response rating (scale of 0 to 100 where 0 is no effect and 100 is complete control), Morningglory (morningglory; [3]): 0 | Morningglory plant response rating (morningglory; [4]): 80 | Plant response rating, Morningglory (morningglory; [5]): 98 | Plant response rating, Morningglory (morningglory; [6]): 95 | Plant response rating (scale of 0 to 100 where 0 is no effect and 100 is complete control), Soybean (soybean; [3]): 90 | Soybean plant response rating (soybean; [4]): 95 | Plant response rating, Soybean (soybean; [5]): 95 | Plant response rating, Soybean (soybean; [6]): 95 | Plant response rating (scale of 0 to 100 where 0 is no effect and 100 is complete control), Foxtail, Giant (foxtail, giant; [3]): 5 | Foxtail, Giant plant response rating (foxtail, giant; [4]): 85 | Plant response rating, Foxtail, Giant (foxtail, giant; [5]): 98 | Plant response rating, Foxtail, Giant (foxtail, giant; [6]): 90 | Plant response rating (scale of 0 to 100 where 0 is no effect and 100 is complete control), Chickweed (chickweed; [3]): 55 | Chickweed plant response rating (chickweed; [4]): 70 | Plant response rating, Chickweed (chickweed; [5]): 90 | Plant response rating, Chickweed (chickweed; [6]): 80 | Plant response rating (scale of 0 to 100 where 0 is no effect and 100 is complete control), Ragweed (ragweed; [3]): 85 | Ragweed plant response rating (ragweed; [4]): 85 | Plant response rating, Ragweed (ragweed; [5]): 95 | Plant response rating, Ragweed (ragweed; [6]): 95 | Plant response rating (scale of 0 to 100 where 0 is no effect and 100 is complete control), Galium (galium; [3]): 60 | Galium plant response rating (galium; [4]): 60 | Plant response rating, Galium (galium; [5]): 85 | Plant response rating, Galium (galium; [6]): 85 | Plant response rating (scale of 0 to 100 where 0 is no effect and 100 is complete control), Nutsedge, Yellow (nutsedge, yellow; [3]): 5 | Nutsedge, Yellow plant response rating (nutsedge, yellow; [4]): 5 | Plant response rating, Nutsedge, Yellow (nutsedge, yellow; [5]): 60 | Plant response rating, Nutsedge, Yellow (nutsedge, yellow; [6]): 10 | Plant response rating (scale of 0 to 100 where 0 is no effect and 100 is complete control), Barnyardgrass (barnyardgrass; [3]): 5 | Barnyardgrass plant response rating (barnyardgrass; [4]): 5 | Plant response rating, Barnyardgrass (barnyardgrass; [5]): 90 | Plant response rating, Barnyardgrass (barnyardgrass; [6]): 45 | Plant response rating (scale of 0 to 100 where 0 is no effect and 100 is complete control), Waterhemp (waterhemp; [3]): 35 | Waterhemp plant response rating (waterhemp; [4]): 85 | Plant response rating, Waterhemp (waterhemp; [5]): 98 | Plant response rating (scale of 0 to 100 where 0 is no effect and 100 is complete control), Kochia (kochia; [3]): 85 | Kochia plant response rating (kochia; [4]): 90 | Plant response rating, Kochia (kochia; [5]): 90 | Plant response rating, Kochia (kochia; [6]): 90 | Plant response rating (scale of 0 to 100 where 0 is no effect and 100 is complete control), Pigweed (pigweed; [3]): 50 | Pigweed plant response rating (pigweed; [4]): 85 | Plant response rating, Pigweed (pigweed; [5]): 98 | Plant response rating, Pigweed (pigweed; [6]): 95 | Plant response rating (scale of 0 to 100 where 0 is no effect and 100 is complete control), Lambsquarters (lambsquarters [1]; [3]): 80 | Lambsquarters plant response rating (lambsquarters [1]; [4]): 95 | Plant response rating, Lambsquarters (lambsquarters [1]; [5]): 95 | Plant response rating, Lambsquarters (lambsquarters [1]; [6]): 95 | Plant response rating (scale of 0 to 100 where 0 is no effect and 100 is complete control), Oat, Wild (oat, wild; [3]): 5 | Oat, Wild plant response rating (oat, wild; [4]): 15 | Plant response rating, Oat, Wild (oat, wild; [5]): 85 | Plant response rating, Oat, Wild (oat, wild; [6]): 35 | Plant response rating (scale of 0 to 100), Lambsquarters (lambsquarters [2]; Preemergence, 250 g ai/ha): 100 | Lambsquarters plant response rating (lambsquarters [2]; preemergence, 31 g ai/ha, visual rating, scale 0 to 100 (0 no effect, 100 complete control), 13 to 15 days): 98 | Plant response rating, Lambsquarters (lambsquarters [2]; preemergence, 62 g ai/ha, 13 to 15 days, scale 0 to 100, 0 = no effect, 100 = complete control): 98 | Lambsquarters plant response rating (lambsquarters [2]; preemergence, 125 g ai/ha, scale 0 to 100, 0 is no effect, 100 is complete control): 100
